The values that follow come from PubChem BioAssay AID256 (DTP/NCI, 2004).

“And” between values parts separate entries of the source, which are not always exact repeats. Identical values can stand only once. Toxic doses and inconclusive results are not listed.

The subject of this experiment is CD2F1 mice, L1210 leukemia ip, survival T/C. Description: NCI In Vivo Anticancer Drug Screen. Data for tumor model L1210 Leukemia (intraperitoneal) in CD2F1 (CDF1) mice. The conditions noted are these: higher = longer survival. Summed up: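 Read-out first: treated-group measurement over vehicle-control measurement, expressed as a ratio. Animals bore a transplanted tumor line and were dosed with compound or vehicle.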

Where [1] appears, read: endpoint: mean survival time, dose: 100.0 mg/kg/injection, schedule: Q04DX003 (ip), vehicle: saline.
The mark [2] stands for this setting: endpoint: mean survival time, dose: 200.0 mg/kg/injection, schedule: Q04DX003 (ip), vehicle: saline.
[3] abbreviates: endpoint: mean survival time, dose: 400.0 mg/kg/injection, schedule: Q04DX003 (ip), vehicle: saline.
The mark [4] stands for this setting: endpoint: mean survival time, dose: 100.0 mg/kg/injection, schedule: Q04DX003 (ip), vehicle: saline with Tween-80.
The mark [5] stands for this setting: endpoint: mean survival time, dose: 200.0 mg/kg/injection, schedule: Q04DX003 (ip), vehicle: saline with Tween-80.
[6] abbreviates: endpoint: mean survival time, dose: 400.0 mg/kg/injection, schedule: Q04DX003 (ip), vehicle: saline with Tween-80.
Setting [7] is: endpoint: mean survival time, dose: 75.0 mg/kg/injection, schedule: Q01DX001 (ip), vehicle: saline.
The mark [8] stands for this setting: endpoint: mean survival time, dose: 50.0 mg/kg/injection, schedule: Q01DX009 (ip), vehicle: saline with Tween-80.
Where [9] appears, read: endpoint: mean survival time, dose: 100.0 mg/kg/injection, schedule: Q01DX009 (ip), vehicle: saline with Tween-80.
[10] abbreviates: endpoint: mean survival time, dose: 100.0 mg/kg/injection, schedule: Q01DX001 (ip), vehicle: saline.
Setting [11] is: endpoint: mean survival time, dose: 200.0 mg/kg/injection, schedule: Q01DX009 (ip), vehicle: saline with Tween-80.
The mark [12] stands for this setting: endpoint: mean survival time, dose: 400.0 mg/kg/injection, schedule: Q01DX009 (ip), vehicle: saline with Tween-80.

For the compound `COC(=O)[C@@H]1[C@@H](O)[C@H](OC(=O)c2cc(OC)c(OC)c(OC)c2)C[C@@H]2CN3CCc4c([nH]c5ccccc45)[C@H]3C[C@@H]21`, the T/C is, setting by setting: (endpoint: mean survival time, dose: 1.56 mg/kg/injection, schedule: Q01DX009 (ip), vehicle: saline sonified) 93 % of control; (endpoint: mean survival time, dose: 3.13 mg/kg/injection, schedule: Q01DX009 (ip), vehicle: saline sonified) 95 % of control; (endpoint: mean survival time, dose: 6.25 mg/kg/injection, schedule: Q01DX009 (ip), vehicle: saline sonified) 102 % of control; (endpoint: mean survival time, dose: 12.5 mg/kg/injection, schedule: Q04DX003 (ip), vehicle: saline with Tween-80) 103 % of control; (endpoint: mean survival time, dose: 25.0 mg/kg/injection, schedule: Q04DX003 (ip), vehicle: saline with Tween-80) 103 % of control; (endpoint: mean survival time, dose: 50.0 mg/kg/injection, schedule: Q04DX003 (ip), vehicle: saline with Tween-80) 103 % of control.

In the case of `CC(N)C(=O)c1ccccc1` (stereo not given), the T/C is 105 % of control under setting [1] and 94 % of control under setting [2].

Turning to `CCOC(=O)C(C)(C)CO`, the T/C reads like this: (endpoint: mean survival time, dose: 100.0 mg/kg/injection, schedule: Q01DX009 (ip), vehicle: saline sonified) 93 % of control; (endpoint: mean survival time, dose: 200.0 mg/kg/injection, schedule: Q01DX009 (ip), vehicle: saline sonified) 101 % of control; (endpoint: mean survival time, dose: 400.0 mg/kg/injection, schedule: Q01DX009 (ip), vehicle: saline sonified) 103 % of control; (endpoint: mean survival time, dose: 800.0 mg/kg/injection, schedule: Q01DX009 (ip), vehicle: saline sonified) 90 % of control.

As to `CC1(C)OC2C(/C=C\C(=O)c3ccccc3)OC(n3ccc(=O)[nH]c3=O)C2O1` (stereo not given), the T/C was 102 % of control (endpoint: mean survival time, dose: 12.5 mg/kg/injection, schedule: Q01DX005 (ip), vehicle: distilled water + Tween-80); 100 % of control (endpoint: mean survival time, dose: 25.0 mg/kg/injection, schedule: Q01DX005 (ip), vehicle: distilled water + Tween-80); 96 % of control (endpoint: mean survival time, dose: 50.0 mg/kg/injection, schedule: Q01DX005 (ip), vehicle: distilled water + Tween-80); 103 % of control (endpoint: mean survival time, dose: 100.0 mg/kg/injection, schedule: Q01DX005 (ip), vehicle: distilled water + Tween-80).

On to `O=C[C@@H](CO)O[C@H](C=O)n1cnc2c(=O)[nH]cnc21`, for which the T/C runs as follows: (endpoint: mean survival time, dose: 20.0 mg/kg/injection, schedule: Q01DX009 (ip), vehicle: saline) 111 % of control; (endpoint: mean survival time, dose: 40.0 mg/kg/injection, schedule: Q01DX009 (ip), vehicle: saline) 115 % of control; (endpoint: mean survival time, dose: 50.0 mg/kg/injection, schedule: Q04DX003 (ip), vehicle: saline) 114 % of control; (endpoint: mean survival time, dose: 70.0 mg/kg/injection, schedule: Q01DX001 (ip), vehicle: saline) 110 % of control; (endpoint: mean survival time, dose: 80.0 mg/kg/injection, schedule: Q01DX009 (ip), vehicle: saline) 160 % of control; (endpoint: mean survival time, dose: 100.0 mg/kg/injection, schedule: Q01DX007 (ip), vehicle: saline) 156 % of control. Also, the T/C was 124 % of control (endpoint: mean survival time, dose: 140.0 mg/kg/injection, schedule: Q01DX001 (ip), vehicle: saline); 177 % of control and 182 % of control (endpoint: mean survival time, dose: 160.0 mg/kg/injection, schedule: Q01DX009 (ip), vehicle: saline); 150 % of control (endpoint: mean survival time, dose: 200.0 mg/kg/injection, schedule: Q01DX007 (ip), vehicle: saline); 287 % of control (endpoint: mean survival time, dose: 200.0 mg/kg/injection, schedule: Q01DX009 (ip), vehicle: saline); 162 % of control (endpoint: mean survival time, dose: 200.0 mg/kg/injection, schedule: Q03DX003 (ip), vehicle: saline); 158 % of control under setting [2]. Also, the T/C is, setting by setting: (endpoint: median survival time, dose: 38.9 mg/kg/injection, schedule: Q01DX005 (ip), vehicle: saline) 122 % of control; (endpoint: median survival time, dose: 39.0 mg/kg/injection, schedule: Q01DX009 (ip), vehicle: clinical formulation) 122 % of control; (endpoint: median survival time, dose: 50.0 mg/kg/injection, schedule: Q01DX005 (ip), vehicle: distilled water + Tween-80) 118 % of control; (endpoint: median survival time, dose: 89.0 mg/kg/injection, schedule: Q01DX009 (ip), vehicle: clinical formulation) 173 % of control; (endpoint: median survival time, dose: 89.0 mg/kg/injection, schedule: Q01DX009 (ip), vehicle: sodium bicarbonate) 171 % of control; (endpoint: median survival time, dose: 133.0 mg/kg/injection, schedule: Q01DX009 (ip), vehicle: clinical formulation) 105 % of control. Also, the T/C is 163 % of control (endpoint: median survival time, dose: 133.0 mg/kg/injection, schedule: Q01DX009 (ip), vehicle: sodium bicarbonate); 170 % of control (endpoint: median survival time, dose: 180.0 mg/kg/injection, schedule: Q01DX005 (ip), vehicle: saline); 196 % of control (endpoint: median survival time, dose: 200.0 mg/kg/injection, schedule: Q01DX005 (ip), vehicle: distilled water + Tween-80); 238 % of control (endpoint: median survival time, dose: 300.0 mg/kg/injection, schedule: Q01DX005 (ip), vehicle: saline).

For the compound `C1Cn2nnnc2N1`, the T/C under setting [1] was 103 % of control, the T/C under setting [2] is 103 % of control and the T/C under setting [3] was 94 % of control.

Consider `O=C1/C(=C/c2ccccc2)CCCC1/C=C/c1ccccc1` (stereo not given), for which the T/C under setting [4] is 100 % of control, the T/C under setting [5] was 100 % of control and the T/C under setting [6] is 97 % of control.

As for `CSC(I)(N(C)C)N(C)C`, the T/C is 98 % of control under setting [7]; 101 % of control (endpoint: mean survival time, dose: 150.0 mg/kg/injection, schedule: Q01DX001 (ip), vehicle: saline); 98 % of control (endpoint: mean survival time, dose: 300.0 mg/kg/injection, schedule: Q01DX001 (ip), vehicle: saline).

As to `COC(=O)C(Cl)c1ccc2c(c1)OCO2` (stereo not given), the T/C was 96 % of control under setting [8], 96 % of control under setting [9], 96 % of control under setting [4] and 93 % of control under setting [5].

`CC/C=C(\CC(=O)OCC)C(=O)OCC`: the T/C is 102 % of control under setting [4], 106 % of control under setting [5] and 101 % of control under setting [6].

Consider `O=C(CNCc1ccccc1)c1ccccc1`, for which the T/C under setting [4] was 94 % of control, the T/C under setting [5] is 96 % of control and the T/C under setting [6] was 93 % of control.

Take `CN=[N+]([O-])C1(OC(C)=O)CCCC1`: the T/C runs as follows: (endpoint: mean survival time, dose: 50.0 mg/kg/injection, schedule: Q01DX001 (ip), vehicle: saline) 110 % of control; under setting [10], 117 % of control.

Regarding `COc1nc(-c2ccncc2)nc(N(C)C)n1`, the T/C (endpoint: mean survival time, dose: 4.5 mg/kg/injection, schedule: Q04DX002 (ip), vehicle: saline) is 98 % of control and the T/C (endpoint: mean survival time, dose: 9.0 mg/kg/injection, schedule: Q04DX002 (ip), vehicle: saline) is 103 % of control.

Regarding `O=C(O)C(=O)O.O=C(O)C(=O)O.O=C(O)C(=O)O.[Co]`, the T/C (endpoint: mean survival time, dose: 50.0 mg/kg/injection, schedule: Q04DX002 (ip), vehicle: saline) was 93 % of control.

As for `C1CC[N-]CC1.[Cl][Au]([Cl])[Cl]`, the T/C was 97 % of control (endpoint: mean survival time, dose: 25.0 mg/kg/injection, schedule: Q01DX009 (ip), vehicle: saline with Tween-80); 100 % of control under setting [8]; 96 % of control under setting [4].

On to `Clc1ccc(/C(=C(\Br)c2ccccc2)c2ccccc2)cc1`, for which the T/C is 102 % of control and 100 % of control under setting [4]; 100 % of control and 102 % of control under setting [5]; 96 % of control and 94 % of control under setting [6].

Turning to `CCOC(=O)/C(C#N)=C1/C=CC=CN1`, the T/C under setting [9] was 98 % of control; the T/C under setting [4] is 102 % of control; the T/C under setting [11] is 102 % of control; the T/C under setting [5] is 110 % of control; the T/C under setting [12] is 100 % of control; the T/C under setting [6] was 103 % of control.

As to `C=CCC(Cl)(C(=O)OC)C(=O)OC`, the T/C was 108 % of control under setting [9], 108 % of control under setting [11] and 106 % of control under setting [12].

Consider `S=c1[nH]ncn1/N=C/c1ccccc1Cl`, for which the T/C runs as follows: under setting [4], 95 % of control; under setting [5], 101 % of control; under setting [6], 89 % of control.

For `CC(C)(C)c1ccc(OCCO)cc1`, the T/C is, setting by setting: (endpoint: mean survival time, dose: 100.0 mg/kg/injection, schedule: Q01DX009 (ip), vehicle: other) 108 % of control; under setting [4], 100 % of control.

Turning to `CN(C)c1ccc(-c2c3cc(O)c(=O)cc-3oc3cc(O)c(O)cc23)cc1`, the T/C under setting [8] is 92 % of control, the T/C under setting [9] was 95 % of control and the T/C under setting [11] was 91 % of control.

As to `CC(C)N1CCc2cc3c(cc2C1)OCO3`, the T/C is, setting by setting: under setting [7], 100 % of control; under setting [10], 100 % of control.

Take `CCn1ncc2ccc(N(CO)CO)cc21`: the T/C was 103 % of control under setting [1], 106 % of control under setting [2] and 100 % of control under setting [3].
